From patent US20220184015A1, “COMPOSITIONS AND METHODS TO POTENTIATE MUSCULOSKELETAL EFFECT OF ONE OR MORE ANABOLIC AMINO ACIDS ON BONE HEALTH” (SOCIETE DES PRODUITS NESTLE S.A., priority 2019, published 2022)

What was measured:
Format in all cases: in vivo
[1] = test system: LC3 protein fused to ZsGreen under the control of a skeletal muscle specific promoter; assay: zebrafish autophagy reporter, number of LC3 punctae in larvae; details: for autophagy activation by individual amino acids (FIG. 1) / autophagy activation by individual amino acids (FIG. 3) / autophagy activation by individual amino acids (FIG. 2): zebrafish larvae, 0.25 to 10 mM, 16 hours of treatment; for effect on basal autophagy: summary statement referring to the experimental data
Description: Z stack images were captured for each larva and maximal projection images were produced. Number of LC3 punctae have been calculated with MetaXpress software (Moleculare Devices) and normalized by fish area.

[2] = test system: bone stiffness; assay: bone stiffness (bone strength) in old mice after 3 months; details: old mice (78 weeks old), thymol by gavage, AA mix in water, FIG. 6b
Description: (§1) Assessment of the long term (3 months) effect of thymol (an exemplary autophagy-inducing agent) and an amino acid mix, known as autophagy inducers, alone or in combination, on muscle function in old mice. […] Old mice (78 weeks old; n=12/group; inventions) were taking 1) thymol (compound 1); 2) an amino acid (AA) mix and thymol (compounds 2 and 1); or 3) the AA mix (compound 2). In the experiments, thymol was given by gavage; the AA mix was given in water; and alanine for isonitrogenous was given as a control to young mice (Adult). Old untreated mice were also used as another control (old untreated). The AA mix comprises 28.67% of Leucine, 14.29% of Isoleucine, 14.29% of Valine, 12.21% of Proline, 12.21% of Glycine, 14.84% of Lysine and 3.48% of Cysteine (See Table 1).

[3] = test system: bone mineral density; assay: bone mineral density in old mice after 3 months; details: old mice (78 weeks old), thymol by gavage, AA mix in water, FIG. 6a
Description: as §1

SMILES	autophagy activation by individual amino acids (FIG. 1) [1]	effect on basal autophagy [1]	autophagy activation by individual amino acids (FIG. 2) [1]	other results
N[C@@H](Cc1ccccc1)C(=O)O [Phenylalanine]	show at least some autophagy activation effects	–	–	–
Cc1ccc(C(C)C)c(O)c1 [thymol]	–	–	–	increase in bone stiffness as compared with the control of the old untreated [2]: 12%; increase in bone mineral density as compared with the control of the old untreated [3]: 1.6%
N=C(N)NCCC[C@H](N)C(=O)O [Arginine]	show at least some autophagy activation effects	reduce basal autophagy	–	autophagy activation by individual amino acids (FIG. 3) [1]: shows less autophagy activation effects
N[C@@H](Cc1ccc(O)cc1)C(=O)O [Tyrosine]	show at least some autophagy activation effects	–	–	–
NC(=O)CC[C@H](N)C(=O)O [Glutamine]	–	reduce basal autophagy	–	–
CC(C)[C@H](N)C(=O)O [Valine]	show at least some autophagy activation effects	–	show autophagy activation effects	–
CC[C@H](C)[C@H](N)C(=O)O [Isoleucine]	–	reduce basal autophagy	–	–
N[C@@H](CCC(=O)O)C(=O)O [Glutamate]	show at least some autophagy activation effects	–	–	autophagy activation by individual amino acids (FIG. 3) [1]: show clear autophagy activation effects
N[C@@H](CS)C(=O)O [Cysteine]	show at least some autophagy activation effects	–	show autophagy activation effects	–
NCC(=O)O [Glycine]	show at least some autophagy activation effects	–	show autophagy activation effects	–
NC(=O)C[C@H](N)C(=O)O [Asparagine]	show at least some autophagy activation effects	–	–	–
CC(C)C[C@H](N)C(=O)O [Leucine]	–	reduce basal autophagy	does not show any autophagy activation effect	–
O=C(O)[C@@H]1CCCN1 [Proline]	show at least some autophagy activation effects	–	–	autophagy activation by individual amino acids (FIG. 3) [1]: show clear autophagy activation effects
